pIC50: −log10 of the molar value.
Columns and labels:
[1] = biological target: T1, human ERK2 (Homo sapiens, UniProt P28482); test: LanthaScreen TR-FRET ERK2 enzymatic assay; details: 5 μM ATP, one hour reaction; read-out: ERK2 Biochemical Activity (IC50 of ERK2 inhibition)
T1 construct: recombinantly expressed as GST-tagged full-length protein purified from E. coli; GST; purchased Invitrogen PV3311; host or cells: E. coli
Description: Compounds were tested in a LanthaScreen™ time-resolved fluorescence energy transfer (TR-FRET) enzymatic assay from Invitrogen. The assay used human ERK2 (Mitogen Activated Kinase 1, Invitrogen, Cat. PV3311) recombinantly expressed as GST-tagged full-length protein purified from E. coli and activated in vitro with MAP2K1. The substrate was a recombinant truncated version (residues 19-96) of ATF2 fused with Green Fluorescent Protein (Invitrogen, Cat. PV4445). Test compounds were prepared and diluted in DMSO in 3-fold serial dilutions to 100× of the final testing concentrations. The compounds were then further diluted to 4× by the kinase reaction buffer (Invitrogen, Cat. PV3189). The enzymatic reaction for compound testing was performed in a white 384-well polypropylene plate (Packard, Cat. 6005214) with a total reaction volume of 10 μl containing 20 ng/ml ERK2, 400 nM substrate, and 5 μM ATP that is around its Km. The assay started with loading 2.5 μl of ERK2 diluted in kinase reaction buffer to wells, followed by addition of equal volume of 4× compounds for 15-min incubation at the room temperature for pre-treatment. The enzymatic reaction was initiated by addition of 5 μl of mixture of the substrate and ATP prepared in kinase reaction buffer. After one hour reaction, 10 μl mixture of EDTA (final 10 mM) and terbium-labeled anti-pATF2 (pThr71) antibody (final 2 nM) (Invitrogen, Cat. PV4451) prepared in TR-FRET antibody dilution buffer (Invitrogen, Cat. PV3574) was added to stop the enzymatic reaction and produce TR-FRET signals. After 30 minutes of incubation at room temperature, the plate was read in Tecan Infinite F200 Pro with the following settings: Excitation 340 nm (30)/Emission1 495 nm (10)/Emission2 520 nm (25). The TR-FRET values were dimensionless numbers that were calculated as the ratio of the acceptor ([…]) signal to the donor (Terbium) signal. Percent of control was calculated as the percentage of compound-treated vs 1% DMSO vehicle-treated. The dose-response curves were generated and the IC50s were calculated by nonlinear sigmoid curve fitting using GraphPad Prism.
The IC50 values of ERK2 inhibition for compounds disclosed are listed in Table 3, A: ≤10 nM; B: >10 nM and ≤100 nM; C: >100 nM and ≤1 uM; D: >1 μM.

[2] = test system: Colo205 cell line; test: Colo205 cell proliferation assay (MTT assay, WST-8); assay type: cell-based; details: Homo sapiens, COLO 205; 72 hours incubation; read-out: Colo 205 Cell Activity (IC50 of growth inhibition in Colo 205 cells)
Description: Compounds disclosed herein were tested for the inhibition of ERK2 by a Colo205 cell proliferation assay commonly known as MTT assay. In this assay, a complete media was prepared by adding 10% fetal bovine serum to RPMI-1640 medium (Life technology). Colon cancer cells (Colo205 cell line) were added to each of 88 wells of a 96 well plate at a seeding density of 5,000 cells/well/90 μL. The cells were allowed to attach to the plate by incubating at 37° C. for 24 hours. The compound was dissolved in DMSO (SIGMA). A solution of test compound was prepared in complete media by serial dilution to obtain the following concentrations: 500 μM, 150 μM, 50 μM, 15 μM, 5 μM, 1.5 μM, 0.5 μM, 0.15 μM and 0.05 μM. The test compound solution (10 μL) was added to each of 80 cell-containing wells. The final concentrations of the compound were following: 50 μM, 15 μM, 5 μM, 1.5 μM, 0.5 μM, 0.15 μM, 0.05 μM, 0.015 μM and 0.005 μM. The final concentration of DMSO is 0.5%. To the 8 remaining cell-containing wells, only complete media (containing 0.5% DMSO) was added to form a control group in order to measure maximal proliferation. To the remaining 8 empty wells, complete media was added to for a vehicle control group in order to measure background. The plates were incubated at 37° C. for 72 hours. 10 μL WST-8 solution (DOJINDO, Cell Counting KIT-8) was added to each well. The plates were further incubated at 37° C. for 2 hours, and then read for the absorbance using a microplate reader at 450 nm.
The IC50 values of growth inhibition in Colo 205 cells for compounds disclosed are listed in Table 3, A′: ≤0.5 μM; B′: >0.5 μM and ≤1 μM; C′: >1.0 μM and ≤5 uM; D′: >5 μM.

T1 sequence (P28482 whole entry): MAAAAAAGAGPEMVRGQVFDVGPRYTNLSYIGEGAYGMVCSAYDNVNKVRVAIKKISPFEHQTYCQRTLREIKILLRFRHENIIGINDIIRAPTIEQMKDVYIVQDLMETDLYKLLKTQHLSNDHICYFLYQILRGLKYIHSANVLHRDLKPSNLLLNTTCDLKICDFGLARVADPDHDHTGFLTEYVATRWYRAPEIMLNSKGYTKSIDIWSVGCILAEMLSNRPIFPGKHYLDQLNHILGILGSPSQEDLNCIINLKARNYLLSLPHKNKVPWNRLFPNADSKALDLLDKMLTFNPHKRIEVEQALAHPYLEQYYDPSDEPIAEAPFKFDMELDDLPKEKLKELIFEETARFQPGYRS

SMILES	pIC50 [1]	pIC50 [2]
CC(c1ccnc(C(F)(F)F)c1)N1C(=O)c2cc(-c3ccnc(Nc4ccnn4C)n3)sc2C1(C)C (racemic) [Example 9, 6,6-dimethyl-2-(2-(1-methyl-1H-pyrazol-5-ylamino)pyrimidin-4-yl)-5-(1-(2-(trifluoromethyl)pyridin-4-yl)ethyl)-5,6-dihydro-4H-thieno[2,3-c]pyrrol-4-one]	≥ 8.00	≥ 6.30
CC(c1nc(C(F)(F)F)cs1)N1C(=O)c2cc(-c3ccnc(Nc4ccnn4C)n3)sc2C1(C)C (racemic) [Example 10, 6,6-dimethyl-2-(2-(1-methyl-1H-pyrazol-5-ylamino)pyrimidin-4-yl)-5-(1-(4-(trifluoromethyl)thiazol-2-yl)ethyl)-5,6-dihydro-4H-thieno[2,3-c]pyrrol-4-one]	≥ 8.00	≥ 6.30
Cn1nccc1Nc1nccc(-c2cc3c(s2)C(C)(C)N(Cc2ccnc(C(F)(F)F)c2)C3=O)n1 [Example 1, 6,6-dimethyl-2-(2-(1-methyl-1H-pyrazol-5-ylamino)pyrimidin-4-yl)-5-((2-(trifluoromethyl)pyridin-4-yl)methyl)-5,6-dihydro-4H-thieno[2,3-c]pyrrol-4-one]	≥ 8.00	≥ 6.30
Cn1nccc1Nc1nccc(-c2cc3c(s2)C(C)(C)N(Cc2cccc(Cl)c2)C3=O)n1 [Example 2, 5-(3-chlorobenzyl)-6,6-dimethyl-2-(2-(1-methyl-1H-pyrazol-5-ylamino)pyrimidin-4-yl)-5,6-dihydro-4H-thieno[2,3-c]pyrrol-4-one]	≥ 8.00	≥ 6.30
Cn1nccc1Nc1nccc(-c2cc3c(s2)C(C)(C)N(Cc2cccc(C(F)(F)F)n2)C3=O)n1 [Example 3, 6,6-dimethyl-2-(2-((1-methyl-1H-pyrazol-5-yl)amino)pyrimidin-4-yl)-5-((6-(trifluoromethyl)pyridin-2-yl)methyl)-5,6-dihydro-4H-thieno[2,3-c]pyrrol-4-one]	≥ 8.00	≥ 6.30
Cn1nccc1Nc1nccc(-c2cc3c(s2)C(C)(C)N(Cc2ccc(C(F)(F)F)nc2)C3=O)n1 [Example 4, 6,6-dimethyl-2-(2-((1-methyl-1H-pyrazol-5-yl)amino)pyrimidin-4-yl)-5-((6-(trifluoromethyl)pyridin-3-yl)methyl)-5,6-dihydro-4H-thieno[2,3-c]pyrrol-4-one]	≥ 8.00	6.00 to 6.30
Cn1nccc1Nc1nccc(-c2cc3c(s2)C(C)(C)N(Cc2nc(C(F)(F)F)cs2)C3=O)n1 [Example 5, 6,6-dimethyl-2-(2-((1-methyl-1H-pyrazol-5-yl)amino)pyrimidin-4-yl)-5-((4-(trifluoromethyl)thiazol-2-yl)methyl)-5,6-dihydro-4H-thieno[2,3-c]pyrrol-4-one]	≥ 8.00	≥ 6.30
Cn1nccc1Nc1nccc(-c2cc3c(s2)C(C)(C)N(Cc2ccnc(C(F)(F)F)n2)C3=O)n1 [Example 6, 6,6-dimethyl-2-(2-((1-methyl-1H-pyrazol-5-yl)amino)pyrimidin-4-yl)-5-((2-(trifluoromethyl)pyrimidin-4-yl)methyl)-5,6-dihydro-4H-thieno[2,3-c]pyrrol-4-one]	≥ 8.00	≥ 6.30
Cn1nccc1Nc1nccc(-c2cc3c(s2)C(C)(C)N(Cc2cc(C(F)(F)F)no2)C3=O)n1 [Example 7, 6,6-dimethyl-2-(2-((1-methyl-1H-pyrazol-5-yl)amino)pyrimidin-4-yl)-5-((3-(trifluoromethyl)isoxazol-5-yl)methyl)-5,6-dihydro-4H-thieno[2,3-c]pyrrol-4-one]	≥ 8.00	≥ 6.30
Cn1nccc1Nc1nccc(-c2cc3c(s2)C(C)(C)N(CCc2ccnc(C(F)(F)F)c2)C3=O)n1 [Example 8, 6,6-dimethyl-2-(2-((1-methyl-1H-pyrazol-5-yl)amino)pyrimidin-4-yl)-5-(2-(2-(trifluoromethyl)pyridin-4-yl)ethyl)-5,6-dihydro-4H-thieno[2,3-c]pyrrol-4-one]	–	5.30 to 6.00
Cn1nccc1Nc1nccc(-c2cc3c(s2)C(C)(C)N([C@H](CO)c2cccc(Cl)c2)C3=O)n1 [Example 11, (S)-5-(1-(3-chlorophenyl)-2-hydroxyethyl)-6,6-dimethyl-2-(2-((1-methyl-1H-pyrazol-5-yl)amino)pyrimidin-4-yl)-5,6-dihydro-4H-thieno[2,3-c]pyrrol-4-one]	–	≥ 6.30
CC(c1cccc(C(F)(F)F)n1)N1C(=O)c2cc(-c3ccnc(Nc4ccnn4C)n3)sc2C1(C)C (stereo not shown) [Example 12, 6,6-dimethyl-2-(2-((1-methyl-1H-pyrazol-5-yl)amino)pyrimidin-4-yl)-5-(1-(6-(trifluoromethyl)pyridin-2-yl)ethyl)-5,6-dihydro-4H-thieno[2,3-c]pyrrol-4-one]	–	5.30 to 6.00
CC(c1ccnc(C(F)(F)F)n1)N1C(=O)c2cc(-c3ccnc(Nc4ccnn4C)n3)sc2C1(C)C (stereo not shown) [Example 13, 6,6-dimethyl-2-(2-((1-methyl-1H-pyrazol-5-yl)amino)pyrimidin-4-yl)-5-(1-(2-(trifluoromethyl)pyrimidin-4-yl)ethyl)-5,6-dihydro-4H-thieno[2,3-c]pyrrol-4-one]	7.00 to 8.00	≥ 6.30
Cn1nccc1Nc1nccc(-c2cc3c(s2)C(C)(C)N(CC(=O)N[C@H](CO)c2cccc(Cl)c2)C3=O)n1 [Example 14, (S)—N-(1-(3-chlorophenyl)-2-hydroxyethyl)-2-(6,6-dimethyl-2-(2-((1-methyl-1H-pyrazol-5-yl)amino)pyrimidin-4-yl)-4-oxo-4H-thieno[2,3-c]pyrrol-5(6H)-yl)acetamide]	≥ 8.00	≥ 6.30
CC(C(=O)N[C@H](CO)c1cccc(Cl)c1)N1C(=O)c2cc(-c3ccnc(Nc4ccnn4C)n3)sc2C1(C)C (stereo partly drawn) [Example 15, N—((S)-1-(3-chlorophenyl)-2-hydroxyethyl)-2-(6,6-dimethyl-2-(2-((1-methyl-1H-pyrazol-5-yl)amino)pyrimidin-4-yl)-4-oxo-4H-thieno[2,3-c]pyrrol-5(6H)-yl)propanamide]	–	6.00 to 6.30
Cn1nccc1Nc1nccc(-c2cc3c(s2)C(C)(C)N(CC(=O)NCc2ccnc(C(F)(F)F)c2)C3=O)n1 [Example 16, 2-(6,6-dimethyl-2-(2-((1-methyl-1H-pyrazol-5-yl)amino)pyrimidin-4-yl)-4-oxo-4H-thieno[2,3-c]pyrrol-5(6H)-yl)-N-((2-(trifluoromethyl)pyridin-4-yl)methyl)acetamide]	–	5.30 to 6.00
Cn1nccc1Nc1nccc(-c2cc3c(s2)C(C)(C)N(CCN[C@H](CO)c2cccc(Cl)c2)C3=O)n1 [Example 17, (S)-5-(2-((1-(3-chlorophenyl)-2-hydroxyethyl)amino)ethyl)-6,6-dimethyl-2-(2-((1-methyl-1H-pyrazol-5-yl)amino)pyrimidin-4-yl)-5,6-dihydro-4H-thieno[2,3-c]pyrrol-4-one]	–	6.00 to 6.30

— US12133841B2, “Heterocyclic compounds as kinase inhibitors, compositions comprising the heterocyclic compound, and methods of use thereof” (JS INNOMED HOLDINGS LTD., priority 2018, dated 2024)
